Test results as given in patent US20230158178A1, “Radionuclide Tracers of 1-Amino-3,4-Difluorocyclopentane-1-Carboxylic Acid, Derivatives, and Uses Thereof” (Emory University, priority 2020, published 2023).

Assays:
[1] = tested on: 9 L, U87 ΔEGFR, and DU145 cell; experiment: Cell uptake and uptake inhibition, stated across all cell lines tested; assay type: cell-based, rat; human; settings: for relative cell uptake (in words): all cell lines; for mechanism of transport (in words): each of the cell lines tested
Experimental: Data are presented as percent ligand uptake of the initial dose per 0.5 million cells (% ID/5×10^5 cells).
(§1) Consistent with this reasoning, having knowledge of which systems take part in transporting a particular amino acid is of value, since this information can be used to determine which tumor types the amino acid may be useful for imaging. To establish which systems are responsible for transporting a particular AA, cell uptake inhibition studies are performed. In these studies, a known number of cells of a certain line are suspended in a media containing a known quantity of an amino acid radiotracer and incubated for a set period to allow for the amino acid to be transported into the cells. […] The radioactivity present within the cells after rinsing is measured and expressed as a normalized percent uptake of the radioactive amino acid dose that the cells were initially exposed to. This experiment establishes the degree to which a given amino acid is taken up by a group of cells in the absence of any perturbing conditions and serves as the control.
(§2) With this information in hand, the cell uptake experiment is performed again, but in the presence of an excess of a substrate known to have a high affinity for a particular transport system. The excess substrate floods the targeted system, competitively inhibiting the transport of other amino acids. Consequently, any reduction in cellular uptake of radioactivity relative to the control experiment is assumed to arise from loss of amino acid transport by the inhibited system. It follows that if inhibition of a transport system results in reduced uptake of a given amino acid, then that system contributes to cellular transport of the amino acid. Furthermore, the degree to which the system participates in transport can be roughly evaluated by the percent loss (inhibition) of amino acid uptake relative to the control. In addition to delineating transport mechanisms, cell uptake studies provide insight into the avidity of a particular cell line for an amino acid.
(§3) The potential of [^18F]3.09, [^18F]3.23, and [^18F]3.33 as PET radiotracers were evaluated for imaging brain and prostate cancer, cell uptake studies with rat 9 L gliosarcoma, human U87 ΔEGFR glioblastoma, and human DU145 androgen-independent prostate carcinoma. Uptake data for anti-3-[^18F]-FACBC were also collected under the same conditions for comparison. Alpha-(methylamino)isobutyric acid (MeAIB) was used as a competitive inhibitor for system A transport, 2-amino-bicyclo[2.2.1]heptane2-carboxylic acid (BCH) was used to inhibit system L, and the combination of alanine, serine, and cysteine was used for inhibition of system ASC.

[2] = tested on: intracranial 9 L gliosarcoma tumors; experiment: MicroPET biodistribution in Fischer rats bearing intracranial 9 L gliosarcoma tumors; assay type: in vivo; settings: for tumor uptake at final time point: final time point / final scan; for background uptake in healthy brain: normal brain, range over the study
Experimental: To gain insight into the biodistribution profiles of [^18F]3.09, [^18F]3.23, and [^18F]3.33 each was administered to Fischer rats bearing intracranial 9 L gliosarcoma tumors, which have been used extensively as models for human glioma. With each tracer, uptake in 9 L tumors was higher than in normal brain tissue at all time points, peaking near the 12.5-minute time point. Tumor uptake was highest with [^18F]3.09 and stayed fairly constant at 2.0-2.2% injected dose per gram of tissue (% ID/g) throughout the course of the study. […] While absolute uptake in tumors was highest with [^18F]3.09, background uptake in healthy brain was also highest with this stereoisomer, ranging from 0.59-0.96% % ID/g, compared to uptake values of 0.39-0.46 and 0.28-0.36% ID/g obtained with [^18F]3.23 and [^18F]3.33, respectively.
(§4) [^18F]trans-3,4-DFACPC ([^18F]3.23) was prepared in 1.3% decay corrected radiochemical yield in greater than 99% radio-chemical purity. Competitive uptake inhibition studies with 9 L gliosarcoma, human U87 ΔEGFR glioblastoma, and human DU145 androgen-independent prostate carcinoma cells to establish the mechanism of transport of [^18F]3.23, as well as its affinity for each cell line. The biodistribution of [^18F]3.23 was assessed in normal and intracranial 9 L gliosarcoma bearing rats via micro-PET imaging.

[3] = MicroPET biodistribution in normal Fischer rats (bladder accumulation); assay type: in vivo; settings: post injection
Experimental: DFACPC, and anti-3-[^18F] FACBC.
as §4
MicroPET biodistribution studies in normal Fischer rats established that bladder accumulation of [^18F]3.23 is delayed until at least 10 minutes post injection. In rats bearing intracranial 9 L gliosarcoma, [^18F]3.23 gave tumor uptake values of up to 1.2% injected dose per gram (% ID/g) and tumor to contralateral brain tissue ratios of up to 2.8.

[4] = tested on: human DU145 androgen-independent prostate carcinoma; experiment: Cell uptake study in DU145 prostate carcinoma cells; assay type: cell-based; settings: for uptake in DU145 cells: no inhibitor, 30 min incubation
Experimental: as §1, §2, §3

[5] = tested on: human U87 ΔEGFR glioblastoma; experiment: Cell uptake inhibition study in U87 ΔEGFR glioblastoma cells; assay type: cell-based
Experimental: as §1, with “This experiment establishes the degree to which a given amino acid is taken up by a group of cells in the absence of any perturbing conditions and serves as the control.” left out
With this information in hand, the cell uptake experiment is performed again, but in the presence of an excess of a substrate known to have a high affinity for a particular transport system. […] Consequently, any reduction in cellular uptake of radioactivity relative to the control experiment is assumed to arise from loss of amino acid transport by the inhibited system. […] Furthermore, the degree to which the system participates in transport can be roughly evaluated by the percent loss (inhibition) of amino acid uptake relative to the control. […]

rat 9 L gliosarcoma = settings: 9 L gliosarcoma cells; cited from earlier work
[6] = 4.5-minute time point (highest for the tracer)
[7] = range over the three cell lines

In the case of `N[C@]1(C(=O)O)C[C@@H](F)[C@H]([18F])C1` (racemic) [[^18F]3.23, trans-[^18F]-1-amino-3,4-difluorocyclopentane-1-carboxylic acid], the “relative cell uptake (in words)” value [1] is reported as “greater uptake than [^18F]3.33 in all cell lines”, the “mechanism of transport (in words)” value [1] is reported as “transported primarily via system L with some transport occurring via system ASC” and the “tumor uptake at final time point” value ([2]; 9 L tumor) is reported as 1.1 % ID/g. For the same compound, the L/N ratio ([2]; 12.5-minute mark (maximum)) was 2.8, the L/N ratio ([2]; 52.5 minutes) was 2.4 and the “tumor to contralateral brain tissue ratios” value ([2]; maximum (up to)) was “up to 2.8”. For the same compound, the “background uptake in healthy brain” value [2] was 0.39-0.46 % ID/g, the “bladder accumulation delayed until” value [3] was “at least 10 minutes” and the “avidity of DU145 cells (in words)” value [4] was “substantially greater avidity”. For the same compound, the “uptake in DU145 cells, fold higher than [^18F]-FACBC” value [4] was 1.7 fold, the “uptake in DU145 cells, fold higher than the best cis-3,4-DFACPC analog” value [4] was about 2 fold and the “uptake in DU145 cells” value [4] was 34 % ID/5×10^5 cells.
With `N[C@]1(C(=O)O)C[C@@H](F)[C@@H]([18F])C1` [[^18F]3.09, anti-cis-[^18F]-1-amino-3,4-difluorocyclopentane-1-carboxylic acid] the “relative cell uptake (in words)” value [1] was “greater uptake than [^18F]3.33 in all cell lines”, the “inhibition of uptake by BCH” value [5] was 50% and the “inhibition of uptake by alanine, serine, and cysteine” value [5] was 78%. For the same compound, the L/N ratio [2, 6] was 3.5, the “tumor uptake, injected dose per gram of tissue” value ([2]; 9 L tumor, throughout the course of the study) was 2.0-2.2 % ID/g and the “background uptake in healthy brain” value [2] was 0.59-0.96 % ID/g. The “uptake in DU145 cells” value [4] was 18 % ID/5×10^5 cells.
With `N[C@@]1(C(=O)O)C[C@@H]([18F])[C@@H](F)C1` [[^18F]3.33, syn-cis-[^18F]-1-amino-3,4-difluorocyclopentane-1-carboxylic acid] the L/N ratio [2, 6] was 4.3, the “tumor uptake at final time point” value ([2]; 9 L tumor) was 0.8 % ID/g and the “tumor uptake, peak value” ([2]; 9 L tumor, peak / maximum) was 1.2 % ID/g. For the same compound, the “background uptake in healthy brain” value [2] was 0.28-0.36 % ID/g.
For `N[C@]1(C(=O)O)CCC[C@@H]1[18F]` [anti-2-[^18F]-FACPC, anti-1-amino-2-[^18F] fluorocyclopentane-1-carboxylic acid], the “inhibition of uptake by BCH (system L)” value (rat 9 L gliosarcoma) is given as 71%, the “inhibition of uptake by MeAIB (system A)” value (rat 9 L gliosarcoma) is given as 38% and the “inhibition of uptake by alanine, serine, and cysteine (system ASC)” value (rat 9 L gliosarcoma) is given as 65%.
With `N[C@]1(C(=O)O)C[C@@H](F)C1` [anti-3-[^18F]-FACBC, anti-1-amino-3-[^18F]fluorocyclobutane-1-carboxylic acid] the “uptake levels, percent of the initial dose per 0.5 million cells” value ([1]; across all cell lines tested, no inhibitor, 30 min incubation) was 6-20 % ID/5×10^5 cells, the “mechanism of transport (in words)” value [1] was “primarily a substrate for system ASC” and the “inhibition of uptake by BCH (system L)” value [1, 7] was 36-56%. For the same compound, the “inhibition of uptake by alanine, serine, and cysteine (system ASC)” value [1, 7] was 73-87% and the “uptake in DU145 cells” value [4] was 20 % ID/5×10^5 cells.
